Usually pIC50 stands for −log10 of the IC50, conventionally taken in molar units.

pIC50: −log10 of the molar value.

The target of assay [1] is T1, Human CD73 (amino acid residues 27-549) (Homo sapiens, UniProt P21589).
T1 construct: Human CD73 (amino acid residues 27-549); His tag (N); made in house; host or cells: E. coli
T1 sequence (P21589 27-549): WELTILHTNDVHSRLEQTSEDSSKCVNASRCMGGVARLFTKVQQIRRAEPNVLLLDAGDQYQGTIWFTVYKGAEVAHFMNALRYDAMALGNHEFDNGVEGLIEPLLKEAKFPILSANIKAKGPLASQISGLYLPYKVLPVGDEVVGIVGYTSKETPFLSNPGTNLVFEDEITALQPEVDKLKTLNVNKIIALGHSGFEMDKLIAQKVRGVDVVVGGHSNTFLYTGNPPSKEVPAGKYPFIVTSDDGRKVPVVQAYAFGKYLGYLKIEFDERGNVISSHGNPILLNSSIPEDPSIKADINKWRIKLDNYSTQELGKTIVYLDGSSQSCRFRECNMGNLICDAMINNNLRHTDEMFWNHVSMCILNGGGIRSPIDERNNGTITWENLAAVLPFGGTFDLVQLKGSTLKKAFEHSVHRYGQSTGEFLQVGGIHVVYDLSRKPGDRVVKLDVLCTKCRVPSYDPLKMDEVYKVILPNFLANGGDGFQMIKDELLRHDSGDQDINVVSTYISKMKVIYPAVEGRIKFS
Kind of assay: CD73 enzymatic assay (luciferase-based indirect assay, CellTiter-Glo). The assay is classed as biochemical. The note with it: 0.4 nM CD73, 150 μM AMP, 1 hour at room temperature. The gist of the method: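 His-tagged human CD73 (27-549) from E. coli, 0.4 nM, with 150 μM AMP in 50 mM HEPES pH 7.4, 0.01% Tween 20; 1 h at room temperature. AMP remaining read by CellTiter-Glo 2.0 luminescence with 1 μM final ATP after 30 min. IC50 from nonlinear regression of % inhibition.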

The target in the next assay is T2, human CD73 (Homo sapiens, UniProt P21589).
T2 construct: expressed in transfected cells
T2 sequence (P21589 27-549): T1 sequence (P21589 27-549)
Kind of assay: Inhibitor activity against CD73 in cell based assay (CD73 expressing CHO-K1 cells). The following applies: CHO-K1 cells expressing human CD73, 150 μM AMP, 4 hours of incubation; read-out: CHO-K1 CELL VARIANT: CD73 IC50. A digest of the protocol:
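Stably transfected CHO-K1 cells expressing human CD73 (1×10^4/well) incubated 4 h with compound (8-point 1:3 titration, top 10 μM final, 0.2% DMSO) and 150 μM AMP. Residual AMP in supernatant measured by CellTiter-Glo luminescence with 1 μM ATP after 30 min at room temperature; IC50 by nonlinear regression of percent inhibition vs high/low controls.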

Take `O=C1CC2CCC(C1)C2NC(=O)O[C@@H]1CCN(c2cn[nH]c(=O)c2Cl)C1` (stereo partly drawn) [P-0407, (R)-1-(5-chloro-6-oxo-1,6-dihydropyridazin-4-yl)pyrrolidin-3-yl (3-oxobicyclo[3.2.1]octan-8-yl)carbamate]: the negative-log IC50 (pIC50) (in assay [1]; on human CD73) was 5.00 to 9.00 each time.

For the compound `CCC1(NC(=O)O[C@@H]2CCN(c3cn[nH]c(=O)c3Cl)C2)CCCC1` [P-0408, (R)-1-(5-chloro-6-oxo-1,6-dihydropyridazin-4-yl)pyrrolidin-3-yl (1-ethylcyclopentyl)carbamate], the pIC50 (in assay [1]; on human CD73) was 5.00 to 9.00 throughout.

Take `CS(=O)(=O)N[C@H]1CC[C@H](NC(=O)O[C@@H]2CCN(c3cnn(CC(O)CO)c(=O)c3Cl)C2)CC1` (stereo partly drawn) [P-0409, (3R)-1-(5-chloro-1-(2,3-dihydroxypropyl)-6-oxo-1,6-dihydropyridazin-4-yl)pyrrolidin-3-yl ((1r,4R)-4-(methylsulfonamido)cyclohexyl)carbamate]: the pIC50 (in assay [1]; on human CD73) was 5.00 to 9.00 throughout.

Take `O=C(NC1(C2CCCCC2)CC1)O[C@@H]1CCN(c2cn[nH]c(=O)c2Cl)C1` [P-0410, (R)-1-(5-chloro-6-oxo-1,6-dihydropyridazin-4-yl)pyrrolidin-3-yl (1-cyclohexylcyclopropyl) carbamate]: the pIC50 (in assay [1]; at human CD73) was 5.00 to 9.00 in each case.

On to `N#CCC1(NC(=O)O[C@@H]2CCN(c3cn[nH]c(=O)c3Cl)C2)CCCC1` [P-0411, (R)-1-(5-chloro-6-oxo-1,6-dihydropyridazin-4-yl)pyrrolidin-3-yl (1-(cyanomethyl)cyclopentyl) carbamate], for which the negative logarithm of the IC50 (pIC50) (in assay [1]; at human CD73) was 5.00 to 9.00 in each case.

Take `Cc1csc(C2(NC(=O)O[C@@H]3CCN(c4cn[nH]c(=O)c4Cl)C3)CCCC2)n1` [P-0412, (R)-1-(5-chloro-6-oxo-1,6-dihydropyridazin-4-yl)pyrrolidin-3-yl (1-(4-methylthiazol-2-yl)cyclopentyl)carbamate]: the negative-log IC50 (pIC50) (in assay [1]; on human CD73) was 5.00 to 9.00 throughout.

For the compound `CC1(C)CCCCC1NC(=O)O[C@@H]1CCN(c2cn[nH]c(=O)c2Cl)C1` (stereo partly drawn) [P-0413, (R)-1-(5-chloro-6-oxo-1,6-dihydropyridazin-4-yl)pyrrolidin-3-yl (2,2-dimethylcyclohexyl)carbamate], the pIC50 (in assay [1]; at human CD73) was 5.00 to 9.00 each time.

In the case of `NCCn1ncc(N2CC[C@@H](OC(=O)NC3CCC(F)(F)CC3)C2)c(Cl)c1=O` [P-0414, (R)-1-(1-(2-aminoethyl)-5-chloro-6-oxo-1,6-dihydropyridazin-4-yl)pyrrolidin-3-yl (4,4-difluorocyclohexyl)carbamate], the negative-log IC50 (pIC50) (in assay [1]; at human CD73) was 5.00 to 9.00 throughout.

Consider `NCCn1ncc(N2CC[C@@H](OC(=O)NC3CCCC3)C2)c(Cl)c1=O` [P-0415, (R)-1-(1-(2-aminoethyl)-5-chloro-6-oxo-1,6-dihydropyridazin-4-yl)pyrrolidin-3-yl cyclopentylcarbamate], for which the pIC50 (in assay [1]; on human CD73) was 5.00 to 9.00 each time.

For the compound `O=C(NC1CCN(C(=O)c2cccnc2)CC1)O[C@@H]1CCN(c2cn[nH]c(=O)c2Cl)C1` [P-0416, (R)-1-(5-chloro-6-oxo-1,6-dihydropyridazin-4-yl)pyrrolidin-3-yl (1-nicotinoylpiperidin-4-yl)carbamate], the pIC50 (in assay [1]; at human CD73) was 5.00 to 9.00 each time.

Consider `O=C(NC1CCN(C(=O)c2cccnc2Cl)CC1)O[C@@H]1CCN(c2cn[nH]c(=O)c2Cl)C1` [P-0417, (R)-1-(5-chloro-6-oxo-1,6-dihydropyridazin-4-yl)pyrrolidin-3-yl (1-(2-chloronicotinoyl)piperidin-4-yl)carbamate], for which the pIC50 (in assay [1]; at human CD73) was 5.00 to 9.00 throughout.

As for `O=C(NC1CCN(C(=O)c2ccc(Cl)nc2)CC1)O[C@@H]1CCN(c2cn[nH]c(=O)c2Cl)C1` [P-0418, (R)-1-(5-chloro-6-oxo-1,6-dihydropyridazin-4-yl)pyrrolidin-3-yl (1-(6-chloronicotinoyl)piperidin-4-yl)carbamate], the pIC50 (in assay [1]; at human CD73) was 5.00 to 9.00 each time.

For the origin of these results see patent US12509444B2, “Compounds and methods for CD73 modulation and indications therefor” (Plexxikon Inc., priority 2019, dated 2025).
